The source of these data is US6818426B2 (Daicel Chemical Industries, Ltd., priority 2000, dated 2004).

The target in assay [1] is (R)-2,3-butanediol dehydrogenase derived from Saccharomyces cerevisiae (Saccharomyces cerevisiae, UniProt P39714). The following applies: Arch. Microbiol., 154:267-273, 1990; cited from earlier work.
Assay [2] concerns the target glycerol dehydrogenase produced by Escherichia coli (Escherichia coli W-1485) (Escherichia coli, UniProt P0A9S5). The following applies: J. Biol. Chem., 259:2124-2129, 1984; cited from earlier work.
For assay [3], the system named is recombinant (R)-2,3-butanediol dehydrogenase, HB101 (pSE-PAD1) cell extract. The assay can be described thus: Substrate specificity of recombinant enzyme, oxidation reaction. Type of assay: biochemical, Pichia angusta. The following applies: substrate 50 mM. As to the method:
The quantification of polypeptide is carried out by a dye-binding method using a protein assay kit from BioRad.
(§1) The bacterial cells were collected by centrifugal separation and then suspended in 100 mM potassium phosphate buffer (pH 8.0) containing 0.02% 2-mercaptoethanol; the bacterial cells were lysed by the treatment with a closed sonic chamber device UCD-200TM (Cosmo Bio) for 4 minutes. The bacterial cell lysate was separated by centrifugation and the resulting supernatant was recovered as a bacterial cell extract.

Assay [4] relates to E. coli HB101 cell-free extract prepared in the absence of plasmid. Type of assay: biochemical. To be noted: oxidation reaction; substrate 50 mM. As to the method: as §1
Assay [5] has as its system (R)-2,3-butanediol dehydrogenase derived from Pichia angusta. The assay can be described thus: Coenzyme usability. Type of assay: biochemical. To be noted: NADP+ in oxidation reaction, NADPH in reduction reaction. The text has this:
However, regardless of the usability of NADP^+ and NADPH, an enzyme having the above-mentioned physicochemical properties (1) to (3), preferably (1) to (6), and even more preferably (1) to (9) is included in the present invention.

Chain of glycerol dehydrogenase produced by Escherichia coli (Escherichia coli W-1485) (P0A9S5 whole entry): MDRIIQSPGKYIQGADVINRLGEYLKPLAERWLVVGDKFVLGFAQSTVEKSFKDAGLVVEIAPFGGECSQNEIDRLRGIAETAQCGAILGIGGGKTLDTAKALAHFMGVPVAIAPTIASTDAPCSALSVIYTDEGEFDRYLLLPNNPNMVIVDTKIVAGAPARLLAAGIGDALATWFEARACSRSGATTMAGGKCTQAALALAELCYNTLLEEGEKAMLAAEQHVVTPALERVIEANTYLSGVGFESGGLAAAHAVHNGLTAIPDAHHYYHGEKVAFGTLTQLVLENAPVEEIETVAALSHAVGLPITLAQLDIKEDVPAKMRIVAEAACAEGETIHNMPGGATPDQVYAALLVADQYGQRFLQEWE
Chain of (R)-2,3-butanediol dehydrogenase derived from Saccharomyces cerevisiae (P39714 whole entry): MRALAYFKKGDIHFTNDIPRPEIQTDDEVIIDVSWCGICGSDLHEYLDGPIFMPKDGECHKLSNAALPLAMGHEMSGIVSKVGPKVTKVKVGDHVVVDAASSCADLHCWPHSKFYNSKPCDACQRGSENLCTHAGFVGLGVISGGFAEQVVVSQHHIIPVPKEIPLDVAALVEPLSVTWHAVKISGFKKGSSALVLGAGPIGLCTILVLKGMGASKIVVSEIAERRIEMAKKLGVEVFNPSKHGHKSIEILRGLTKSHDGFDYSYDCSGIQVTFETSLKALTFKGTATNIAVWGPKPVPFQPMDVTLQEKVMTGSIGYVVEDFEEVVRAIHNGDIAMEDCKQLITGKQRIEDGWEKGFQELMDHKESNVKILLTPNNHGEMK

With `CC(O)C(C)O` (racemic) [DL-2,3-butanediol], in assay [1], the dehydrogenase activity result was “about 20.3 U/mg protein”. Further, the Vmax in assay [2] is recorded as 21.2 U/mg protein.
`C[C@@H](O)[C@@H](C)O` [(2R,3R)-2,3-butanediol]: the Vmax in assay [2] is 28.0 U/mg protein. For the same compound, the “HB101 (pSE-PAD1) activity” value in assay [3] worked out at 1.414 U/mg. The “HB101 (pSE-PAD1) Relative activity” value in assay [3] (glycerol = 100%) is 620%. Moreover, in assay [4], the Host only activity was found to be 0 U/mg.
Take `NC(=O)C1=CN([C@@H]2O[C@H](COP(=O)(O)OP(=O)(O)OC[C@H]3O[C@@H](n4cnc5c(N)ncnc54)[C@H](OP(=O)(O)O)[C@@H]3O)[C@@H](O)[C@H]2O)C=CC1` [NADPH]: the “Usability as a coenzyme (in words)” value in assay [5] is “substantially impossible”.
Same read-out and setting: then `NC(=O)c1ccc[n+]([C@@H]2O[C@H](COP(=O)([O-])OP(=O)(O)OC[C@H]3O[C@@H](n4cnc5c(N)ncnc54)[C@H](OP(=O)(O)O)[C@@H]3O)[C@@H](O)[C@H]2O)c1` [NADP^+], with “substantially impossible”.
